Laboratory results published in ChEMBL document CHEMBL5608179, “Triptonide induces apoptosis and inhibits the proliferation of ovarian cancer cells by activating the p38/p53 pathway and autophagy” (Bioorg Med Chem, 2024).

Assays:
A2780 [1] = experiment: Cytotoxicity against human A2780 cells assessed as cell viability measured after 48 hrs by MTT assay; type: functional, cell-based; details: A2780, 48 h
A2780 [2] = experiment: Induction of apoptosis in human A2780 cells assessed as viable cells at 800 nM measured after 24 hrs by Annexin V-FITC/PI flow cytometry (reference value: 96.1%); type: functional; details: read-out: Activity
A2780 [3] = experiment: Induction of apoptosis in human A2780 cells assessed as early apoptotic cells at 800 nM measured after 24 hrs by Annexin V-FITC/PI flow cytometry (reference value: 2.17%); type: functional
A2780 [4] = experiment: Induction of apoptosis in human A2780 cells assessed as necrotic cells at 800 nM measured after 24 hrs by Annexin V-FITC/PI flow cytometry (reference value: 0.18%); type: functional
A2780 [5] = experiment: Induction of apoptosis in human A2780 cells assessed as late apoptotic cells at 800 nM measured after 24 hrs by Annexin V-FITC/PI flow cytometry (reference value: 1.58%); type: functional
Huh-7 = experiment: Cytotoxicity against human Huh-7 cells assessed as cell viability measured after 48 hrs by MTT assay; type: functional, cell-based; details: Huh-7, 48 h
SK-OV-3 = experiment: Cytotoxicity against human SK-OV-3 cells assessed as cell viability measured after 48 hrs by MTT assay; type: functional, cell-based; details: SK-OV-3, 48 h
A2780 [6] = experiment: Induction of apoptosis in human A2780 cells assessed as late apoptotic cells at […] measured after 24 to 72 hrs by Annexin V-FITC/PI flow cytometry (reference value: 2.54%); type: functional; details: time 24-72 hrs
A2780 [7] = experiment: Induction of cell cycle arrest in human A2780 cells assessed as accumulation of cells at G1 phase at 20 uM measured after 24 hrs by PI staining based Cell Cycle Analysis Kit (KeyGEN) (reference value: 54.2%); type: functional
A2780 [8] = experiment: Induction of cell cycle arrest in human A2780 cells assessed as accumulation of cells at G2 phase at 20 uM measured after 24 hrs by PI staining based Cell Cycle Analysis Kit (KeyGEN) (reference value: 24.5%); type: functional
A2780 [9] = experiment: Induction of cell cycle arrest in human A2780 cells assessed as accumulation of cells at S phase at 20 uM measured after 24 hrs by PI staining based Cell Cycle Analysis Kit (KeyGEN) (reference value: 15%); type: functional
A2780 [10] = experiment: Induction of apoptosis in human A2780 cells assessed as early apoptotic cells at […] measured after 24 to 72 hrs by Annexin V-FITC/PI flow cytometry (reference value: 2.82%); type: functional; details: time 24-72 hrs
A2780 [11] = experiment: Induction of apoptosis in human A2780 cells assessed as necrotic cells at 20 uM measured after 24 to 72 hrs by Annexin V-FITC/PI flow cytometry (reference value: 0.39%); type: functional; details: time 24-72 hrs
A2780 [12] = experiment: Induction of apoptosis in human A2780 cells assessed as viable cells at 20 uM measured after 24 to 72 hrs by Annexin V-FITC/PI flow cytometry (reference value: 94.2%); type: functional; details: time 24-72 hrs, read-out: Activity

C[C@@]1(C(=O)O)CC[C@]2(C)CC[C@]3(C)C4=CC(=O)c5c(cc(O)c(O)c5C=O)[C@]4(C)CC[C@@]3(C)[C@@H]2C1
IC50 (A2780 [1]): 10.1 µM

C[C@]12CCC[C@@]3(COC1=O)[C@@H]1CC[C@@H]4C[C@@]1(CC[C@@H]32)C[C@@]4(C)O
IC50 (A2780 [1]): > 60 µM

C[C@@H]1[C@@]23CC[C@H]4[C@@](C)(CC[C@@]5(C)[C@@H]6C[C@](C)(C(=O)O)CC[C@]6(C)CC[C@]45C)[C@@H]2C[C@@H](O)[C@@]1(O)OC3
IC50 (A2780 [1]): > 60 µM

CC(=O)OC[C@]12[C@H](OC(C)=O)[C@H](OC(C)=O)[C@@H]3[C@@H](OC(C)=O)[C@@]14O[C@@]3(C)COC(=O)c1cccnc1CC[C@H](C)C(=O)O[C@@H]([C@H](OC(=O)c1ccccc1)[C@@H]2OC(C)=O)[C@]4(C)O
IC50 (A2780 [1]): > 60 µM

CC(=O)OC[C@]12[C@H](OC(C)=O)[C@H](OC(C)=O)[C@@H]3[C@@H](OC(C)=O)[C@@]14OC3(C)COC(=O)c1cccnc1CCC(C)C(=O)O[C@@H]([C@H](OC(=O)c1ccoc1)[C@@H]2OC(C)=O)C4(C)O (stereo not given in full)
IC50 (A2780 [1]): > 60 µM

CC1(C)[C@@H](O)CC[C@]2(C)[C@H]3CC=C4[C@@H]5C[C@@]6(C)C[C@H](OC6=O)[C@]5(C)CC[C@@]4(C)[C@]3(C)CC[C@@H]12 [3-EPIABRUSLACTONE A]
IC50 (A2780 [1]): > 60 µM

CO/C1=C\C(C)=C\[C@@H](C)[C@@H](O)[C@@H](C)C/C(C)=C/C=C/[C@H](OC)[C@@H]([C@@H](C)[C@@H](O)[C@H](C)[C@@]2(O)C[C@@H](O)[C@H](C)[C@@H](C(C)C)O2)OC1=O [BAFILOMYCIN A1]
viability at 0.8 µM (A2780 [2]): 94% | Activity (A2780 [3]): 3.33% | Activity (A2780 [4]): 0.43% | Activity (A2780 [5]): 2.27%

CC1=C(O)C(=O)C=C2C1=CC=C1[C@@]2(C)CC[C@@]2(C)[C@@H]3C[C@](C)(C(=O)O)CC[C@]3(C)CC[C@]12C [CELASTROL]
IC50 (A2780 [1]): 1.57 µM

COc1cccc2c1C(=O)c1c(O)c3c(c(O)c1C2=O)C[C@@](O)(C(=O)CO)C[C@@H]3O[C@H]1C[C@H](N)[C@@H](O)[C@H](C)O1 [EPIRUBICIN]
IC50 (Huh-7): 0.495 µM | IC50 (A2780 [1]): 1.28 µM | IC50 (SK-OV-3): 0.498 µM

O=c1[nH]cc(F)c(=O)[nH]1 [FLUOROURACIL]
IC50 (Huh-7): 28.5 µM | IC50 (A2780 [1]): 3.93 µM | IC50 (SK-OV-3): 10.8 µM

C[S+]([O-])c1ccc(-c2nc(-c3ccc(F)cc3)c(-c3ccncc3)[nH]2)cc1 (stereo not given) [SB-203580]
Activity (A2780 [6]): 4.27% | Activity (A2780 [7]): 53.8% | Activity (A2780 [8]): 31.5% | Activity (A2780 [9]): 10% | Activity (A2780 [10]): 3.32% | Activity (A2780 [11]): 0.41% | viability at 20 µM (A2780 [12]): 92%

CC(C)c1ccc2c(c1O)CC[C@H]1C3=C(CC[C@]21C)C(=O)OC3 [TRIPTOPHENOLIDE]
IC50 (A2780 [1]): > 60 µM
